Data: ChEMBL document CHEMBL3507680, “University of Dundee, Gates Library screen for HepG2 cell viability”

Assay: Human HepG2 cell viability assay in 384 well format
Type: toxicity, cell-based
Set-up: dose 125 nL, time 70.5 hour; cytotoxicity at 70.5 h: concentration not given beside the values
Conditions: HepG2 cells, read-out: Inhibition

Row | SMILES | cytotoxicity at 70.5 h [%]
1 | CCN(C(=O)C1=NN(c2ccccc2)C(=O)CN1)c1ccccc1 | -2.62
2 | CNC(=O)C1CCCCN1C(=O)c1sc(-c2ccc(C)o2)nc1C (stereo not given) | 3.27
3 | CNC(=O)C1CCCCN1C(=O)c1csc(-c2ccccc2)n1 (stereo not given) | -9.17
4 | NC(=O)C(NCCc1ccc(Cl)s1)c1ccccc1 (stereo not given) | -11.4
5 | Cc1nc(-c2ccncc2)nc(N(C)CCc2ccncc2)c1C | 4.43
6 | O=C(CCNC(=O)C1=Cc2ccccc2OC1)NCc1ccncc1 | -2.01
7 | CS(=O)(=O)CCC(=O)N1CCC(c2cccc(F)c2)C1 (stereo not given) | 5.28
8 | CCOCCNCC1CCN(CCO)CC1 | -3.07
9 | COc1nc(N2CCN(C(C)=O)CC2)ncc1Br | -3.12
10 | Cc1nonc1NC(=O)CCn1cc(Br)ccc1=O | 6.64
11 | CCOc1cc(CNc2cc(-c3nc(C)no3)ccn2)ccc1OC | 1.28
12 | CNC(=O)Cc1noc(-c2cc3c(s2)CCCCCC3)n1 | -7.62
13 | CNS(=O)(=O)CC(=O)N1CCC(c2ccc(F)c(F)c2)CC1 | 0.695
14 | CCC1COCCN1C(=O)CNC(=O)c1ccsc1 (stereo not given) | -8.2
15 | CC(NS(=O)(=O)N(C)C(C)C)C(=O)N(C)C (stereo not given) | -4.6
16 | CN(CCOCC(F)(F)F)CC1CCN(CCO)CC1 | 16.2
17 | CCCN(CCC)S(=O)(=O)NC(C)C(=O)N(C)C (stereo not given) | -6.45
18 | CC(O)CN1CCC(CNCCOCC(F)(F)F)CC1 (stereo not given) | -7.95
19 | OCCN1CCC(CNCCOCC(F)(F)F)CC1 | 3.98
20 | O=C(COC1CCOC1)N(CC(F)F)c1cccc(Cl)c1 (stereo not given) | -3.13
21 | O=C(CCNCc1cccc(O)c1)N1CCc2sccc2C1 | -7.91
22 | CS(=O)(=O)NCCCn1ccc2ccccc21 | -13.2
23 | CCS(=O)(=O)CC(=O)Nc1ccccc1N1CCc2ccccc21 | -13.2
24 | CC(C)NC(=O)c1ccc(NC(=O)NC(C)c2ccccn2)cc1 (stereo not given) | 19.1

Row | SMILES | cytotoxicity at 70.5 h [%]
25 | CC(C)n1cnnc1CNC(=O)CCCOc1ccccc1Cl | -6.43
26 | CC(C)n1cnnc1CNC(=O)CCCOc1ccccc1F | -11.9
27 | Cc1nc(CN(C)C(=O)CNC(=O)c2ccc(C#N)cc2)cs1 | -8.22
28 | CN(C)Cc1nc(C(C)(C)NC(=O)c2cccc3ccccc23)no1 | -7.53
29 | CC(C)(C)C(=O)NCC(=O)NCC1CCCS1 (stereo not given) | -10.6
30 | Fc1cccc(C(NCc2ncc[nH]2)c2ccccc2)c1 (stereo not given) | -3.27
31 | CC(C)(C)CC(=O)NCC1CCCS1 (stereo not given) | -8.2
32 | Cc1ccc(OCC(=O)NC2(C#N)CCSCC2)cc1C | -10.6
33 | CN1CCN(c2ccc(NCc3ccsc3)cn2)CC1 | -8.79
34 | CN1CCN(c2ccc(NCc3ccc([S+](C)[O-])cc3)cn2)CC1 (stereo not given) | -0.416
35 | CNC(=O)NCC(=O)Nc1ccccc1N1CCc2ccccc21 | -3.43
36 | N#Cc1cc(C(F)(F)F)ccc1NCC1CCS(=O)(=O)CC1 | 16.6
37 | Cc1nc(NS(=O)(=O)c2ccc(C)c(Br)c2)no1 | -12.1
38 | COc1ccc(CN(C(=O)C2CCCO2)c2ccncc2)cc1 (stereo not given) | -8.37
39 | N#Cc1cccc(CNCCC(=O)N2CCc3sccc3C2)c1 | -3.34
40 | CCc1nnsc1C(=O)NC(CC(C)C)C(=O)OC (stereo not given) | -7.11
41 | Cc1nc(-c2ccco2)ccc1C(=O)NCCCN1CCOCC1 | -98.3
42 | Cc1nnc(SCc2cccc(F)c2)n1CC(N)=O | -125
43 | COc1cccc(CSc2nnc(C)n2CC(N)=O)c1 | -98.4
44 | Cc1nc(CC(=O)NS(=O)(=O)c2cccc3cnccc23)cs1 | -110
45 | CCn1nc(C)c(C(=O)N2CCC(Nc3ccc(C)nn3)CC2)c1C | -106
46 | O=C(OCC1CCN(c2ccccc2)C1)c1cscn1 (stereo not given) | -103
47 | CCn1c(C)cc(C(=O)N2CCC(NC(=O)c3ccc(C)o3)CC2)c1C | -89.5
48 | Cc1ncsc1C(=O)OCC1CCN(c2ccccc2)C1 (stereo not given) | -97.5

Row | SMILES | cytotoxicity at 70.5 h [%]
49 | CS(=O)(=O)CCN1CCC(Nc2c(Cl)cccc2C#N)CC1 | -94
50 | CNS(=O)(=O)CC(=O)N1CCCc2cc(C(C)C)ccc21 | -98.6
51 | Cc1ccc(C(=O)N2CCC3(CCCCC3)C2)c(=O)[nH]1 | -105
52 | NC(=O)C1=NN2C(=NS(=O)(=O)c3ccccc32)N1 | -106
53 | Cn1cccc1C(=O)NC(C)(C(N)=O)c1cccc(C(F)(F)F)c1 (stereo not given) | -55.1
54 | COc1ccc(CNC(=O)N(C)CC(C)(C)O)cc1OC | -109
55 | O=C(Cc1csc(-c2ccccn2)n1)NCCCN1CCCCCC1=O | -76.6
56 | Cc1nc2n(n1)CC(NCc1nc3ccccc3o1)CC2 (stereo not given) | 1.97
57 | COc1ncccc1CNC(=O)c1cc(F)cc(Br)c1 | -2.19
58 | CC(C)(C)C(Cn1ccnc1)NC(=O)NCc1ccco1 (stereo not given) | -7.73
59 | Cc1cc(C)cc(N(CCC#N)C(=O)CN2CCCC2c2cccs2)c1 (stereo not given) | 25.9
60 | COc1ccc(CNC(=O)NC2CCN(CC3CCCC3)CC2)cn1 | -9.34
61 | COc1cc(CNC(=O)Nc2nncs2)ccc1O | -1.98
62 | O=C1CCN(C(=O)C2(c3ccc(F)cc3)CCOCC2)CCN1 | -8.05
63 | CCc1noc(C)c1C(=O)NCc1c(C)nn(CCOC)c1C | -4.73
64 | Cc1nc(CNC2CCc3ncnn3C2)oc1C (stereo not given) | -5.86
65 | Cc1nc2n(n1)CC(NCc1nc(C)c(C)o1)CC2 (stereo not given) | -0.801
66 | CC(NC(=O)c1cccc(CN2CCN(C)CC2)c1)c1nccs1 (stereo not given) | 1.61
67 | CC(Cc1ccccc1Br)NC(=O)CCS(C)(=O)=O (stereo not given) | 27.4
68 | COC(=O)CCC(=O)NC(C)Cc1ccccc1Br (stereo not given) | -4.19
69 | CNS(=O)(=O)Cc1cccc(CNc2ccc(Cl)cn2)c1 | 4.33
70 | CN(Cc1cc(Br)cn1C)C(=O)c1ccon1 | -2.35
71 | COc1ccc(CNC(=O)N2CCCC(Nc3ccccc3)C2)cn1 (stereo not given) | -7.17
72 | Cc1ccc(S(=O)(=O)N2CC[C@@H](O)C2)c(F)c1 | -2.84

Row | SMILES | cytotoxicity at 70.5 h [%]
73 | Cc1noc(NCc2cc(F)ccc2F)n1 | -3.22
74 | COCCOc1ccc(NC(=O)N(CC2CCOC2)C2CC2)cn1 (stereo not given) | -2.98
75 | CCN(C)CC1CCN(S(=O)(=O)c2cc(C)c(F)cc2Cl)C1 (stereo not given) | -4.14
76 | CCc1nc2n(n1)CC(NCc1nc(C)c(C)o1)CC2 (stereo not given) | -5.85
77 | Cn1cc(C2CCCN2CC(=O)N(CCC#N)Cc2ccco2)cn1 (stereo not given) | 2
78 | CCc1nnc(C2Cc3ccccc3CN2Cc2nc(C3CC3)no2)o1 (stereo not given) | -5.61
79 | c1cncc(CN2CCC(c3n[nH]c(C4CC4)n3)CC2)c1 | 33.7
80 | O=C(c1ccoc1)N1CCC(NCc2ccccc2-n2ccnc2)CC1 | 9.01
81 | CC(C)CN1CC(C(=O)NCCc2ccc(OC(F)F)cc2)CC1=O (stereo not given) | 9.73
82 | O=C(CCNc1ncccn1)NCCc1ccc(Cl)s1 | -3.42
83 | O=C(CCNc1ncccn1)NCc1csc(Br)c1 | 11.5
84 | CCS(=O)(=O)N1CCC(Nc2c(F)cc(C#N)cc2F)CC1 | -9.63
85 | CCCS(=O)(=O)N1CCC(Nc2c(F)cc(C#N)cc2F)CC1 | -2.66
86 | Cc1nc(S(=O)(=O)NCCC(=O)NCc2ccc(C#N)cc2)cn1C | -0.237
87 | CCN(CC)c1ccc(CNC(=O)c2cnc(C)cn2)cn1 | -4.04
88 | CNC(=O)C1CCN(C(=O)NCc2ccc(C)n2C)CC1 | -4.71
89 | Nc1cc2c(nn1)CCN(C(=O)Cc1ccc3c(c1)CCCC3)C2 | -2.05
90 | CN(C)c1cc2c(nn1)CCN(C(=O)Cc1ccc3c(c1)CCO3)C2 | -5.69
91 | NC(=O)CC1CCN(C(=O)NCC2(c3ccccc3F)CC2)CC1 | 0.188
92 | Nc1cc2c(nn1)CCN(C(=O)Cc1ccc3c(c1)CCO3)C2 | 9.71
93 | Nc1cc2c(nn1)CCN(C(=O)CCc1ccc3c(c1)OCO3)C2 | -6.15
94 | O=C(CCc1ccsc1)NCc1ccnc(OC2CCOCC2)c1 | -5.9
95 | Cc1c(NC(C)C(C)C)cccc1C(=O)NCc1nnc(C)n1C (stereo not given) | 8.29
96 | Cc1ccc(F)cc1C(=O)OCC1CCCN1C(N)=O (stereo not given) | -1.91

Row | SMILES | cytotoxicity at 70.5 h [%]
97 | Cc1c(F)cccc1NC(=O)N(C(C)CS(C)(=O)=O)C1CC1 (stereo not given) | -4.32
98 | CC(C)Cc1cc(NC(=O)N2CCC(Oc3cccnc3)C2)n(C)n1 (stereo not given) | 5.38
99 | Cc1noc(-c2cccnc2N2CCN(c3cnn(C)c3)CC2)n1 | -12
100 | Cn1cc(CCC(=O)NS(=O)(=O)N2CCCc3ccccc32)cn1 | -8.12
101 | O=C(NCCc1ccsc1)c1ccoc1 | 5.67
102 | CN(CCn1nc2ccccn2c1=O)CC(=O)N(C)C1CCCCC1 | 2.32
103 | Cc1nc(CNC(=O)NC2CCCN(c3ncccn3)C2)cs1 (stereo not given) | -14.1
104 | COC(=O)C(C)(C)NC(=O)C1CC(=O)N(CC2CC2)C1 (stereo not given) | -6.45
105 | Cc1nc2cc(O)nn2c(C)c1CCC(=O)N(C)Cc1ccccc1 | 2.7
106 | Cc1ccc(C(=O)N(C)CCOc2ccccc2F)c(=O)[nH]1 | -5.2
107 | COc1c(CNCc2cccnc2N2CCCCC2)c(C)nn1C | 2.37
108 | Cc1nn(C)c(N(C)C)c1CNCc1cccnc1N1CCOCC1 | -8.33
109 | Cc1nnc2n1CCN(C(=O)c1cn(-c3ccccc3)nn1)C2 | -1.52
110 | Cc1nc2cc(O)nn2c(C)c1CCC(=O)N(C)CCC(C)C | -7.92
111 | CCOc1ccc(NC(=O)N2CCOC(C(N)=O)C2)cc1Cl (stereo not given) | 2.49
112 | Cc1ccc(NC(=O)N2CCOC(C(N)=O)C2)cc1C(F)(F)F (stereo not given) | -4.03
113 | COc1ccc(OC)c(C(=O)N2CCC(Nc3cccnc3)CC2)c1 | -0.864
114 | CCOc1ccc(NC(=O)N2CCOC(C(N)=O)C2)cc1C (stereo not given) | 1.77
115 | CN1N=C(C(=O)N(Cc2ccco2)C2CCCC2)CCC1=O | -9.57
116 | O=C(Cc1ccc2c(c1)CCC2)N1CCCC1Cn1cccn1 (stereo not given) | 26.4
117 | CN(CCN1CCOCC1)C(=O)CCCOCCc1ccccc1 | 13.1
118 | CN(Cc1ccc(F)cc1)S(=O)(=O)N1CCOCC1 | 6.44
119 | O=C(NCc1ccccn1)NC1CCCN(c2ncccn2)C1 (stereo not given) | -9.45
120 | O=C(c1ccoc1)N1CCC(NCc2ccccc2Cl)CC1 | -8.33
